Laboratory results from ChEMBL document CHEMBL3525908, “Chronic doxorubicin cardiotoxicity modulates cardiac cytochrome P450-mediated arachidonic acid metabolism in rats” (Drug Metab Dispos, 2012).

Legend:
Rattus norvegicus [1] = test: Toxicity in Sprague-Dawley rat assessed as CYP4F4 gene expression in liver administered as cumulative dose of 15 mg/kg, ip divided into 6 injections for 2 weeks followed by compound washout period of 14 days by RT-PCR analysis relative to control; type: organism-based; design: dose 15 mg/kg, route intraperitoneal; settings: in vivo, 336 h
CYP1B1 = test: Toxicity in Sprague-Dawley rat assessed as induction of CYP1B1 gene expression in kidney administered as cumulative dose of 15 mg/kg, ip divided into 6 injections for 2 weeks followed by compound washout period of 14 days by RT-PCR analysis relative to control; type: organism-based; design: dose 15 mg/kg, route intraperitoneal
CYP2J3 = test: Toxicity in Sprague-Dawley rat assessed as induction of CYP2J3 gene expression in kidney administered as cumulative dose of 15 mg/kg, ip divided into 6 injections for 2 weeks followed by compound washout period of 14 days by RT-PCR analysis relative to control; type: organism-based; design: dose 15 mg/kg, route intraperitoneal
Rattus norvegicus [2] = test: Toxicity in Sprague-Dawley rat assessed as CYP1A1 gene expression in kidney administered as cumulative dose of 15 mg/kg, ip divided into 6 injections for 2 weeks followed by compound washout period of 14 days by RT-PCR analysis relative to control; type: organism-based; design: dose 15 mg/kg, route intraperitoneal; settings: in vivo, 336 h
Rattus norvegicus [3] = test: Toxicity in Sprague-Dawley rat assessed as CYP1A2 gene expression in kidney administered as cumulative dose of 15 mg/kg, ip divided into 6 injections for 2 weeks followed by compound washout period of 14 days by RT-PCR analysis relative to control; type: organism-based; design: dose 15 mg/kg, route intraperitoneal; settings: in vivo, 336 h
Rattus norvegicus [4] = test: Toxicity in Sprague-Dawley rat assessed as CYP2E1 gene expression in kidney administered as cumulative dose of 15 mg/kg, ip divided into 6 injections for 2 weeks followed by compound washout period of 14 days by RT-PCR analysis relative to control; type: organism-based; design: dose 15 mg/kg, route intraperitoneal; settings: in vivo, 336 h
Rattus norvegicus [5] = test: Toxicity in Sprague-Dawley rat assessed as CYP4A3 gene expression in kidney administered as cumulative dose of 15 mg/kg, ip divided into 6 injections for 2 weeks followed by compound washout period of 14 days by RT-PCR analysis relative to control; type: organism-based; design: dose 15 mg/kg, route intraperitoneal; settings: in vivo, 336 h
Rattus norvegicus [6] = test: Toxicity in Sprague-Dawley rat assessed as CYP4F1 gene expression in kidney administered as cumulative dose of 15 mg/kg, ip divided into 6 injections for 2 weeks followed by compound washout period of 14 days by RT-PCR analysis relative to control; type: organism-based; design: dose 15 mg/kg, route intraperitoneal; settings: in vivo, 336 h
Rattus norvegicus [7] = test: Induction of […]-mediated arachidonic acid metabolism in Sprague-Dawley rat heart microsomes assessed as 20-HETE formation administered as cumulative dose of 15 mg/kg, ip divided into 6 injections for 2 weeks followed by compound washout period of 14 days by LC-ESI-MS analysis relative to control; type: ADME, organism-based; design: dose 15 mg/kg, route intraperitoneal; settings: 336 h
Rattus norvegicus [8] = test: Cardiotoxicity in Sprague-Dawley rat assessed as increase in CYP4A1 gene expression level administered as cumulative dose of 15 mg/kg, ip divided into 6 injections for 2 weeks followed by compound washout period of 14 days by RT-PCR analysis relative to control; type: toxicity, organism-based; design: dose 15 mg/kg, route intraperitoneal; settings: in vivo, 336 h
H9c2 = test: Cytotoxicity against rat H9c2 cells assessed as reduction in ANP mRNA expression at 1 uM after 6 hrs in presence of HET0016; type: cell-based; settings: h9c2, 6 h
Rattus norvegicus [9] = test: Cardiotoxicity in Sprague-Dawley rat assessed as increase in CYP4F4 gene expression level administered as cumulative dose of 15 mg/kg, ip divided into 6 injections for 2 weeks followed by compound washout period of 14 days by RT-PCR analysis relative to control; type: toxicity, organism-based; design: dose 15 mg/kg, route intraperitoneal; settings: in vivo, 336 h
Rattus norvegicus [10] = test: Induction of CYP450-mediated arachidonic acid metabolism in Sprague-Dawley rat heart microsomes assessed as 8,9-EET formation administered as cumulative dose of 15 mg/kg, ip divided into 6 injections for 2 weeks followed by compound washout period of 14 days by LC-ESI-MS analysis relative to control; type: ADME, organism-based; design: dose 15 mg/kg, route intraperitoneal; settings: 336 h
Rattus norvegicus [11] = test: Induction of CYP450-mediated arachidonic acid metabolism in Sprague-Dawley rat heart microsomes assessed as 14,15-DHET formation administered as cumulative dose of 15 mg/kg, ip divided into 6 injections for 2 weeks followed by compound washout period of 14 days by LC-ESI-MS analysis relative to control; type: ADME, organism-based; design: dose 15 mg/kg, route intraperitoneal; settings: 336 h
Rattus norvegicus [12] = test: Toxicity in Sprague-Dawley rat assessed as sEH gene expression in liver administered as cumulative dose of 15 mg/kg, ip divided into 6 injections for 2 weeks followed by compound washout period of 14 days by RT-PCR analysis; type: organism-based; design: dose 15 mg/kg, route intraperitoneal; settings: in vivo, 336 h
Rattus norvegicus [13] = test: Toxicity in Sprague-Dawley rat assessed as induction of TNF-alpha gene expression in liver administered as cumulative dose of 15 mg/kg, ip divided into 6 injections for 2 weeks followed by compound washout period of 14 days by RT-PCR analysis relative to control; type: organism-based; design: dose 15 mg/kg, route intraperitoneal; settings: 336 h
CYP1A1 = test: Toxicity in Sprague-Dawley rat assessed as induction of CYP1A1 gene expression in liver administered as cumulative dose of 15 mg/kg, ip divided into 6 injections for 2 weeks followed by compound washout period of 14 days by RT-PCR analysis relative to control; type: organism-based; design: dose 15 mg/kg, route intraperitoneal
CYP1A2 = test: Toxicity in Sprague-Dawley rat assessed as induction of CYP1A2 gene expression in liver administered as cumulative dose of 15 mg/kg, ip divided into 6 injections for 2 weeks followed by compound washout period of 14 days by RT-PCR analysis relative to control; type: organism-based; design: dose 15 mg/kg, route intraperitoneal
CYP4F5 = test: Toxicity in Sprague-Dawley rat assessed as induction of CYP4F5 gene expression in liver administered as cumulative dose of 15 mg/kg, ip divided into 6 injections for 2 weeks followed by compound washout period of 14 days by RT-PCR analysis relative to control; type: organism-based; design: dose 15 mg/kg, route intraperitoneal
Rattus norvegicus [14] = test: Toxicity in Sprague-Dawley rat assessed as CYP2E1 gene expression in liver administered as cumulative dose of 15 mg/kg, ip divided into 6 injections for 2 weeks followed by compound washout period of 14 days by RT-PCR analysis relative to control; type: organism-based; design: dose 15 mg/kg, route intraperitoneal; settings: in vivo, 336 h
CYP2E1 = test: Cardiotoxicity in Sprague-Dawley rat assessed as increase in CYP2E1 gene expression level administered as cumulative dose of 15 mg/kg, ip divided into 6 injections for 2 weeks followed by compound washout period of 14 days by RT-PCR analysis relative to control; type: toxicity, organism-based; design: dose 15 mg/kg, route intraperitoneal; settings: heart
Rattus norvegicus [15] = test: Cardiotoxicity in Sprague-Dawley rat assessed as increase in IL-6 gene expression level administered as cumulative dose of 15 mg/kg, ip divided into 6 injections for 2 weeks followed by compound washout period of 14 days by RT-PCR analysis relative to control; type: toxicity, organism-based; design: dose 15 mg/kg, route intraperitoneal; settings: in vivo, 336 h
Rattus norvegicus [16] = test: Cardiotoxicity in Sprague-Dawley rat assessed as increase in CYP2B1 gene expression level administered as cumulative dose of 15 mg/kg, ip divided into 6 injections for 2 weeks followed by compound washout period of 14 days by RT-PCR analysis relative to control; type: toxicity, organism-based; design: dose 15 mg/kg, route intraperitoneal; settings: in vivo, 336 h
Rattus norvegicus [17] = test: Cardiotoxicity in Sprague-Dawley rat assessed as increase in CYP2C11 gene expression level administered as cumulative dose of 15 mg/kg, ip divided into 6 injections for 2 weeks followed by compound washout period of 14 days by RT-PCR analysis relative to control; type: toxicity, organism-based; design: dose 15 mg/kg, route intraperitoneal; settings: in vivo, 336 h
CYP4F1 = test: Cardiotoxicity in Sprague-Dawley rat assessed as increase in CYP4F1 gene expression level administered as cumulative dose of 15 mg/kg, ip divided into 6 injections for 2 weeks followed by compound washout period of 14 days by RT-PCR analysis relative to control; type: toxicity, organism-based; design: dose 15 mg/kg, route intraperitoneal; settings: heart

COc1cccc2c1C(=O)c1c(O)c3c(c(O)c1C2=O)C[C@@](O)(C(=O)CO)C[C@@H]3O[C@H]1C[C@H](N)[C@H](O)[C@H](C)O1 [DOXORUBICIN]
Activity (Rattus norvegicus [1]): Non-toxic | fold induction at 336 h (CYP1B1): 1.8 | fold induction at 336 h (CYP2J3): 1.6 | Activity (Rattus norvegicus [2]): Non-toxic | Activity (Rattus norvegicus [3]): Non-toxic | Activity (Rattus norvegicus [4]): Non-toxic | Activity (Rattus norvegicus [5]): Non-toxic | Activity (Rattus norvegicus [6]): Non-toxic | Activity (Rattus norvegicus [7]): Toxic | Activity (Rattus norvegicus [8]): Non-toxic | Activity (H9c2): Toxic | Activity (Rattus norvegicus [9]): Non-toxic | Activity (Rattus norvegicus [10]): Active | Ratio (Rattus norvegicus [11]): 1.3 | Activity (Rattus norvegicus [12]): Non-toxic | fold induction at 15 mg/kg (Rattus norvegicus [13]): 2.2 | fold induction at 336 h (CYP1A1): 2.8 | fold induction at 336 h (CYP1A2): 1.9 | fold induction at 336 h (CYP4F5): 1.8 | Activity (Rattus norvegicus [14]): Non-toxic | fold induction at 336 h (CYP2E1): 1.8 | Ratio (Rattus norvegicus [15]): 1.8 | Activity (Rattus norvegicus [16]): Non-toxic | Activity (Rattus norvegicus [17]): Non-toxic | fold induction at 336 h (CYP4F1): 1.6
